The text below walks through data of patent US11702404B2, “GLP-1R modulating compounds” (priority 2019, dated 2023).

The pEC50 is the negative decadic logarithm of the EC50, by convention in mol/L.

pEC50: −log10 of the molar value.

Data set [1] in a line: Microsomal stability, human liver microsomes (predicted hepatic clearance). Particulars: predicted from in vitro microsomal stability data.
The target in the next data set is GLP-1R (Homo sapiens, UniProt P43220). In words: GLP-1R activation: cAMP increase in CHO cells stably expressing GLP-1R. Conditions: cAMP increase, CHO cells stably expressing GLP-1R, 10 point dose response, 30 minutes incubation; read-out: EC50. It counts as cell-based.
Chain of GLP-1R (P43220 24-463): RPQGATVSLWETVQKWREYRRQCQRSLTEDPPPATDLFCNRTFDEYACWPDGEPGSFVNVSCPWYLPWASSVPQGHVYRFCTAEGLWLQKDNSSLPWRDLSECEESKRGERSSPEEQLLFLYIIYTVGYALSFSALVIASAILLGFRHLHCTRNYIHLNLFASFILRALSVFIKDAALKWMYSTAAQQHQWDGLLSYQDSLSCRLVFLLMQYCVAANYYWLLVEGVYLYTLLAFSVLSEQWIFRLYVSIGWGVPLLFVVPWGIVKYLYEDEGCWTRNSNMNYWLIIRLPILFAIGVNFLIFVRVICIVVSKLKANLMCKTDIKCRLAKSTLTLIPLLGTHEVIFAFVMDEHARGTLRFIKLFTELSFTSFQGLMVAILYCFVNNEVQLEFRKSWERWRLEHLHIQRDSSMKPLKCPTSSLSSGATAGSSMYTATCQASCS

As to `N#Cc1ccc(COc2cccc(-c3cc(F)c(Cc4nc5ccc(C(=O)O)cc5n4C[C@@H]4CCO4)cc3F)n2)c(F)c1` [Example 444, (S)-2-(4-(6-((4-cyano-2-fluorobenzyl)oxy)pyridin-2-yl)-2,5-difluorobenzyl)-1-(oxetan-2-ylmethyl)-1H-benzo[d]imidazole-6-carboxylic acid], the “Predicted Hepatic Clearance (Pred. Cl.)” value in data set [1] was 4.13 mL/min/kg. The negative-log EC50 (pEC50) on GLP-1R was 9.60.
In the case of `COCCn1c(Cc2ccc(-c3cccc(OCc4cccc(C5CC5)c4)n3)cc2F)nc2ccc(C(=O)O)cc21` [Example 137, 2-(4-(6-((3-cyclopropylbenzyl)oxy)pyridin-2-yl)-2-fluorobenzyl)-1-(2-methoxyethyl)-1H-benzo[d]imidazole-6-carboxylic acid], the “Predicted Hepatic Clearance (Pred. Cl.)” value in data set [1] was 4.83 mL/min/kg. In addition, the pEC50 at GLP-1R was 7.49.
On the same counts, the results for `COCCn1c(Cc2cc(F)c(-c3cccc(OCc4ccc(C#N)cc4F)n3)cc2C)nc2ccc(C(=O)O)cc21` [Example 674] are 6 mL/min/kg and 8.56.
On the same counts, the results for `COCCn1c(Cc2ccc(-c3cccc(OCc4ccc(C#N)cc4F)n3)cc2S(C)(=O)=O)nc2ccc(C(=O)O)cc21` [Example 387, 2-(4-(6-((4-cyano-2-fluorobenzyl)oxy)pyridin-2-yl)-2-(methylsulfonyl)benzyl)-1-(2-methoxyethyl)-1H-benzo[d]imidazole-6-carboxylic acid] are 8.3 mL/min/kg and 6.30.
Turning to `N#Cc1cc(F)c(COc2nccc(-c3cc(F)c(Cc4nc5ccc(C(=O)O)cc5n4C[C@@H]4CCO4)cc3F)n2)cc1F` [Example 786], in data set [1], the “Predicted Hepatic Clearance (Pred. Cl.)” value was 1.83 mL/min/kg. On GLP-1R, the negative logarithm of the EC50 (pEC50) was 9.66.
As for `N#Cc1ccc(COc2cccc(-c3cc(F)c(Cc4nc5ccc(C(=O)O)cc5n4C[C@@H]4CCO4)cc3F)n2)c(OC(F)F)n1` [Example 858, (S)-2-(4-(6-((6-cyano-2-(difluoromethoxy)pyridin-3-yl)methoxy)pyridin-2-yl)-2,5-difluorobenzyl)-1-(oxetan-2-ylmethyl)-1H-benzo[d]imidazole-6-carboxylic acid], the “Predicted Hepatic Clearance (Pred. Cl.)” value in data set [1] is 8.83 mL/min/kg. Besides, the negative-log EC50 (pEC50) at GLP-1R was 8.64.
On to `COCCn1c(Cc2ccc(-c3cccc(OCc4ccc(C#N)nc4)n3)cc2F)nc2ccc(C(=O)O)cc21` [Example 216, 2-(4-(6-((6-cyanopyridin-3-yl)methoxy)pyridin-2-yl)-2-fluorobenzyl)-1-(2-methoxyethyl)-1H-benzo[d]imidazole-6-carboxylic acid], for which the “Predicted Hepatic Clearance (Pred. Cl.)” value in data set [1] is less than 1.83 mL/min/kg. Besides, the pEC50 on GLP-1R was 6.96.
On the same counts, the results for `C[C@@]1(Cn2c(Cc3cc(F)c(-c4cccc(OCc5ccc(C#N)cc5F)n4)cc3F)nc3ccc(C(=O)O)cc32)CCCO1` (racemic) [Example 548, 2-(4-(6-((4-cyano-2-fluorobenzyl)oxy)pyridin-2-yl)-2,5-difluorobenzyl)-1-((2-methyltetrahydrofuran-2-yl)methyl)-1H-benzo[d]imidazole-carboxylic acid] are 7.5 mL/min/kg and 8.05.
The like results for `COCCn1c(Cc2cc(F)c(-c3cccc(OCc4ccc(C#N)cc4F)n3)cc2F)nc2ccc(C(=O)O)c(F)c21` [Example 309, 2-(4-(6-((4-cyano-2-fluorobenzyl)oxy)pyridin-2-yl)-2,5-difluorobenzyl)-7-fluoro-1-(2-methoxyethyl)-1H-benzo[d]imidazole-6-carboxylic acid] were, in that order, 5.17 mL/min/kg and 8.67.
On the same counts, the results for `N#Cc1ccc(COc2cccc(-c3cc(F)c(Cc4nc5ccc(C(=O)NS(=O)(=O)C6CC6)cc5n4C[C@@H]4CCO4)cc3F)n2)c(F)c1` [Example 163, (S)-2-(4-(6-((4-cyano-2-fluorobenzyl)oxy)pyridin-2-yl)-2,5-difluorobenzyl)-N-(cyclopropylsulfonyl)-1-(oxetan-2-ylmethyl)-1H-benzo[d]imidazole-6-carboxamide] are 5 mL/min/kg and 8.85.
As to `COCCn1c(Cc2ccc(-c3nc(OCc4ccc(C#N)cc4F)ccc3Cl)cc2F)nc2ccc(C(=O)O)cc21` [Example 115, 2-[[4-[3-chloro-6-[(4-cyano-2-fluoro-phenyl)methoxy]-2-pyridyl]-2-fluoro-phenyl]methyl]-3-(2-methoxyethyl)benzimidazole-5-carboxylic acid], the “Predicted Hepatic Clearance (Pred. Cl.)” value in data set [1] is 8.3 mL/min/kg. The negative-log EC50 (pEC50) at GLP-1R is 7.09.
On the same counts, the results for `CC1(Cn2c(Cc3ccc(-c4cccc(OCc5ccc(C#N)cc5F)n4)cc3F)nc3ccc(C(=O)O)cc32)CCO1` (centres unmarked) [Example 365, 2-(4-(6-((4-cyano-2-fluorobenzyl)oxy)pyridin-2-yl)-2-fluorobenzyl)-1-((2-methyloxetan-2-yl)methyl)-1H-benzo[d]imidazole-6-carboxylic acid] are 4.67 mL/min/kg and 9.22.
For `N#Cc1ccc(COc2cccc(-c3cc(F)c(Cc4nc5ccc(C(=O)O)cc5n4[C@H]4CCC(F)(F)C4)cc3F)n2)c(F)c1` [Example 698], the “Predicted Hepatic Clearance (Pred. Cl.)” value in data set [1] is 6.33 mL/min/kg. The negative logarithm of the EC50 (pEC50) on GLP-1R is 7.20.
Consider `N#Cc1ccc(COc2cccc(-c3cc(F)c(Cc4nc5ccc(C(=O)O)cc5n4CC4CC5(COC5)C4)cc3F)n2)c(F)c1` [Example 653], for which, in data set [1], the “Predicted Hepatic Clearance (Pred. Cl.)” value is 2.67 mL/min/kg. Besides, the pEC50 at GLP-1R was 7.77.
On the same counts, the results for `CNC(=O)C(Cn1c(Cc2ccc(-c3cccc(OCc4ccc(C#N)cc4F)n3)cc2F)nc2ccc(C(=O)O)cc21)OC` (single isomer, unassigned) [Example 330, 2-(4-(6-((4-cyano-2-fluorobenzyl)oxy)pyridin-2-yl)-2-fluorobenzyl)-1-(2-methoxy-3-(methylamino)-3-oxopropyl)-1H-benzo[d]imidazole-6-carboxylic acid] are 3.17 mL/min/kg and 7.76.
The like results for `COCCn1c(Cc2ccc(-c3csnc3OCc3ccc(C#N)cc3F)cc2F)nc2ccc(C(=O)O)cc21` [Example 88, 2-(4-(3-((4-cyano-2-fluorobenzyl)oxy)isothiazol-4-yl)-2-fluorobenzyl)-1-(2-methoxyethyl)-1H-benzo[d]imidazole-6-carboxylic acid] were, in that order, 8.5 mL/min/kg and 6.53.
On the same counts, the results for `COC(Cn1c(Cc2ccc(-c3cccc(OCc4ccc(C#N)cc4F)n3)cc2F)nc2ccc(C(=O)O)cc21)C(=O)O` (single isomer, unassigned) [Example 333, 1-(2-carboxy-2-methoxyethyl)-2-(4-(6-((4-cyano-2-fluorobenzyl)oxy)pyridin-2-yl)-2-fluorobenzyl)-1H-benzo[d]imidazole-6-carboxylic acid] are less than 1.83 mL/min/kg and 6.20.
For the molecule `N#Cc1ccc(COc2nccc(-c3ccc(Cc4nc5ccc(C(=O)O)cc5n4C[C@@H]4CCO4)cc3F)n2)c(F)c1` [Example 403, (S)-2-(4-(2-((4-cyano-2-fluorobenzyl)oxy)pyrimidin-4-yl)-3-fluorobenzyl)-1-(oxetan-2-ylmethyl)-1H-benzo[d]imidazole-6-carboxylic acid], the “Predicted Hepatic Clearance (Pred. Cl.)” value in data set [1] was 4.95 mL/min/kg. Further, the pEC50 on GLP-1R is 9.05.
The like results for `N#Cc1ccc(COc2cccc(-c3cc(F)c(Cc4nc5c(F)cc(C(=O)O)cc5n4C[C@@H]4CCO4)cc3F)n2)cn1` [Example 659] were, in that order, 3.5 mL/min/kg and 9.77.
For `COc1cc(Cl)ccc1COc1cccc(-c2cc(F)c(Cc3nc4ccc(C(=O)O)cc4n3CC3(CF)CC3)cc2F)n1` [Example 445, 2-(4-(6-((4-chloro-2-methoxybenzyl)oxy)pyridin-2-yl)-2,5-difluorobenzyl)-1-((1-(fluoromethyl)cyclopropyl)methyl)-1H-benzo[d]imidazole-6-carboxylic acid], in data set [1], the “Predicted Hepatic Clearance (Pred. Cl.)” value was 9.67 mL/min/kg. Moreover, at GLP-1R, the pEC50 is 9.30.
On the same counts, the results for `COCCn1c(Cc2c(F)cc(-c3nccnc3OCc3ccc(C#N)cc3F)cc2F)nc2ccc(C(=O)O)cc21` [Example 177, 2-(4-(3-((4-cyano-2-fluorobenzyl)oxy)pyrazin-2-yl)-2,6-difluorobenzyl)-1-(2-methoxyethyl)-1H-benzo[d]imidazole-carboxylic acid] are 7 mL/min/kg and 6.48.
The like results for `COCCn1c(Cc2c(F)cc(-c3ncc(F)c(OCc4ccc(C#N)cc4F)n3)c(F)c2F)nc2ccc(C(=O)O)cc21` [Example 124, 2-(4-(4-((4-cyano-2-fluorobenzyl)oxy)-5-fluoropyrimidin-2-yl)-2,3,6-trifluorobenzyl)-1-(2-methoxyethyl)-1H-benzo[d]imidazole-6-carboxylic acid] were, in that order, 3.17 mL/min/kg and 9.17.
The like results for `COCCn1c(Cc2ccc(-c3nc(OCc4ccc(C#N)cc4F)cs3)cc2F)nc2ccc(C(=O)O)cc21` [Example 84, 2-(4-(4-((4-cyano-2-fluorobenzyl)oxy)thiazol-2-yl)-2-fluorobenzyl)-1-(2-methoxyethyl)-1H-benzo[d]imidazole-6-carboxylic acid] were, in that order, 6.33 mL/min/kg and 7.26.
For `N#Cc1ccc(COc2cccc(-c3cc(F)c(Cc4nc5ccc(C(=O)O)cc5n4C[C@@H]4CCCO4)cc3F)n2)c(F)c1` [Example 840], in data set [1], the “Predicted Hepatic Clearance (Pred. Cl.)” value was 4.83 mL/min/kg. Also, at GLP-1R, the pEC50 is 8.95.
The like results for `CC(C)(Cn1c(Cc2cc(F)c(-c3cccc(OCc4ccc(C#N)cc4F)n3)cc2F)nc2ccc(C(=O)O)cc21)OC(F)F` [Example 721] were, in that order, 7.83 mL/min/kg and 8.88.
